Results: patent US20260285815A1, “Imidazolidinyl Vanillic Acid Ether Derivative and Use Thereof” (priority 2022, published 2026)
Like-named read-outs stand apart in the source and are kept apart here.

How the values were obtained:
in vivo = assay: in vivo; set-up: species or system SD rats; details: rat, po, 15 mg/kg
Description: Eighteen SD male rats (purchased from Weitong Lihua Experimental Animal Technology Co., Ltd., certificate number: 20211103Aazz0619000910), weighing 240-280 g, were randomly divided into 6 groups, with 3 rats in each group. The animals were fasted overnight before administration. On the day of administration, the compounds of Examples 3, 4, 5, 6, Compound A. and Compound A methyl ester were gavaged to the animals in each groups respectively, and the dosage was 15 mg/kg (calculated as Compound A). Before administration and 0.25, 0.5, 1, 2, 4, 6, 8, and 24 h after administration, 0.15 mL of blood was collected from the animals through the jugular sinus and placed in an EDTA-K2 anticoagulant tube containing 3 μL of dichlorvos aqueous solution (10 mg/mL). After centrifugation, plasma was collected, and was placed in the sample, and then 10 μL of plasma sample was taken, 500 μL of acetonitrile containing IS (verapamil 5 ng·mL^−1, glibenclamide 50 ng·mL^−1, tolbutamide 200 ng·mL^−1, and diclofenac 200 ng·mL^−1) was added, vortexed for 10 min, and then centrifuged at 3700 rpm for 10 min, and then 70 μL of supernatant and 70 μL of water were added, and vortexed for 10 min. An aliquot of 2 μL of the mixture was injected into the LC-MS/MS system (Triple Quad 5500+: LC-MS-MS-022) to measure blood concentration of the compounds. WinNonlin 8.0 software was used to analyze the pharmacokinetic parameters.

[1] = tested on: adenosine diphosphate (ADP)-induced platelet aggregation; details: rabbit; from CN101851209B; cited from earlier work
[2] = background statement; cited from earlier work
[3] = background statement; cited from earlier work; remark: listed apart in the source
[4] = tested on: arteriovenous bypass thrombi in rats; assay: Antithrombotic activity in vivo: arteriovenous bypass thrombosis in rats; details: for inhibition at 15 mg/kg: Rattus norvegicus, po
Description: Each group was given corresponding drugs by gavage (dosage was 15 mg/kg), and the normal control group was given an equal volume of solvent, all of which were given by single gavage. One hour after the last administration, the rats were anesthetized with 3% chloral hydrate intraperitoneally, and the right common carotid artery and left external jugular vein were isolated in a supine position. A polyethylene tube was taken with an inner diameter of 1.5 mm and a length of 10 cm, a 6 cm long silk thread (pre-weighed) was inserted into it, and the polyethylene tube was filled with normal saline solution of heparin (50 U/ml). One end of the polyethylene tube was inserted into the left external jugular vein, heparin (50 U/kg) was injected, and the other end was inserted into the right common carotid artery. After blood flow was opened for 15 minutes, the blood flow was interrupted and the silk thread was quickly taken out and weighed. The total weight minus the original silk thread weight was the wet weight of the thrombus. The silk thread was placed in an oven for drying at 70° C. The dry weight of the thrombus was obtained by weighing the silk thread minus the original silk thread weight, and the inhibition rate was calculated.

Row | SMILES | AUC(0-inf) (in vivo) | AUC(0-t) (in vivo) | Cmax (in vivo) | MRT last (in vivo) | Tmax (in vivo) | half-life (in vivo) | Inhibitory effect on ADP-induced platelet aggregation [1] | Oral bioavailability [2] | Ability to penetrate the blood-brain barrier [3] | inhibition at 15 mg/kg ([4]; read-out: Inhibition rate (thrombus dry weight)) | inhibition at 15 mg/kg ([4]; read-out: Inhibition rate (thrombus wet weight)) | Thrombus wet weight ([4]; rat arteriovenous bypass, 15 mg/kg single gavage, 1 h after dosing, 15 min blood flow, x ± s, n = 8) | Thrombus dry weight ([4]; rat arteriovenous bypass, 15 mg/kg single gavage, thread dried at 70° C., x ± s, n = 8) | F (bioavailability relative to compound A) (in vivo)
1 | COc1cc(C(=O)O)ccc1OCCn1ccnc1 [Compound A, reference compound] | 1720 ng·h/mL | 1610 ng·h/mL | 604 ng/mL | 5.4 h | 21 min | 643 min | significant inhibitory effect | low | weak | 36% | 31% | 69.8 ± 11.2^★★ mg | 21.8 ± 6.0^★★ mg | –
2 | COc1cc(C(=O)OCCCCCC(=O)O)ccc1OCCn1ccnc1 [Example 3, 6-(4-(2-(1H-imidazol-1-yl)ethoxy)-3-methoxybenzoyloxy)hexanoic acid] | 3380 ng·h/mL | 3230 ng·h/mL | 8590 ng/mL | 0.47 h | 15 min | 184 min | – | – | – | – | – | – | – | 200.37%
3 | COC(=O)c1ccc(OCCn2ccnc2)c(OC)c1 [Compound A methyl ester, reference compound] | 1600 ng·h/mL | 1490 ng·h/mL | 513 ng/mL | 6.5 h | 27.6 min | 504 min | – | – | – | – | – | – | – | 92.18%
4 | COc1cc(C(=O)OC(C)OC(C)=O)ccc1OCCn1ccnc1 (centres unmarked) [Example 6, 1-acetoxyethyl-4-(2-(1H-imidazol-1-yl)ethoxy)-3-methoxybenzoate] | 3170 ng·h/mL | 2850 ng·h/mL | 8140 ng/mL | 1.09 h | 15 min | 292 min | – | – | – | – | – | – | – | 176.8%
5 | COc1cc(C(=O)OCOC(=O)OC(C)C)ccc1OCCn1ccnc1 [Example 5, ((isopropoxycarbonyl)oxy)methyl-4-(2-(1H-imidazol-1-yl)ethoxy)-3-methoxybenzoate] | 3000 ng·h/mL | 2890 ng·h/mL | 7080 ng/mL | 0.85 h | 15 min | 206 min | – | – | – | – | – | – | – | 179.28%
